Data published in patent publication US9107852B2, “Uses of agonists of delta opioid receptor in cosmetic and dermocosmetic field” (Induchem Holding AG, priority 2012, dated 2015).

Legend:
[1] = tested on: opioid receptor delta (DOR); experiment: Expression of DOR in epidermis, tissue microarray immunohistochemical labeling; assay type: cell-based, human; conditions: RHE treated with PMA at 2 μg, compared to non-treated RHE
Experimental: The protein expression of the opioid receptor delta (DOR) was analyzed using a “tissue microarray” (TMA) composed of numerous skin-related cellular models in order to identify the best models for further studies.
Formaldehyde-fixed tissues were dehydrated in multiple baths with increasing concentration of ethanol and then embedded in “Paraplast X-tra” paraffin. The transversal sections were carried out using a microtome (5 μm thickness) and kept at room temperature until staining.
The sections were deparaffinized then the antigenic sites were retrieved using specific buffers (pH6 and pH9). The sections were then washed and incubated with hydrogen peroxide. After an additional washing step, the sections were incubated with the primary antibody (anti-DOR). […] After peroxidase-conjugated streptavidine and peroxidase substrate addition, nuclei were counter-stained with a solution of haematoxylin. The slices were washed in ultra-pure water and mounted in aqueous medium.
Sections were observed using a NIKON E400 microscope. Images were captured with a NIKON DS-Ri1 and processed with NIS-Elements 3.10 software.

delta2 opioid receptor = molecular target: T1, delta2 opioid receptor (Mus musculus, UniProt P32300); experiment: Agonist effect at the delta2 opioid receptor (DOP), cell impedance; assay type: cell-based; conditions: percent of control specific agonist response (DPDPE)
T1 construct: host or cells: unnamed cells 'bearing the delta2 opioid receptor'
Experimental: Frozen spinach leaves were thawed and disrupted in fine particles a blender. This juice was further treated with ultrasounds to disrupt cells and proteins were recovered by acidic precipitation. These proteins were then digested by several enzymes, including pepsin and papain. The hydrolysate was purified (ultrafiltration), fractionated and stored before testing. Meanwhile, synthetic peptides were ordered from a manufacturer. The peptides and the hydrolysates were tested on cells bearing the delta2 opioid receptor and cell impedance was measured to evaluate the binding activity of the tested compounds (Law and Loh, 1993).
The EC50 values (concentration producing a half-maximal specific response) and IC50 values (concentration causing a half-maximal inhibition of the control specific agonist response) were determined by non-linear regression analysis of the concentration-response curves generated with mean replicate values using Hill equation curve fitting (Y=D+[(A D)/(1+(C/C50)nH)], where Y=specific response, D=minimum specific response, A=maximum specific response, C=compound concentration, and C50=EC50 or IC50, and nH=slope factor).

[2] = tested on: opioid receptor delta (DOR); experiment: Scoring of DOR1 expression in RHE stimulated with cytokines; assay type: cell-based, human; conditions: JAK inhibitor I tested at 10 μM
Experimental: In the present study, the effects of a peptide (YPLDLF, SEQ ID No 1) on the expression of opioid receptor delta (DOR) were researched on a reconstructed human epidermis (RHE) model under basal or stimulated conditions. More precisely, the RHE were stimulated by a mix of cytokines (IL-17+OSM+TNF-α) able to induce a strong inflammatory profile and a psoriatic phenotype in keratinocytes.
Reconstructed human epidermis (RHE) of 11 days old was prepared according to a derived method described by Poumay et al. (2004). These RHE were cultivated at 37° C. and 5% of CO2 in a specific maintenance medium.
The RHE treated under basal conditions were placed in assay medium containing or not (non-stimulated control) the peptide solutions and incubated for 54 hours. For inflammatory conditions, the RHE were placed in assay medium containing or not (stimulated control) the peptide solutions or the reference […] at 10 μM) and pre-incubated for 6 hours. The RHE were then stimulated with a mix of cytokines (IL-17+OSM+TNF-α at 3 ng/ml) and incubated for 48 hours. All experimental conditions were performed in n=3.
At the end of incubation, the supernatants were collected and the RHE were washed in phosphate buffered saline solution (PBS) for immunohistofluorescence analysis. […]

T1 sequence (P32300 whole entry): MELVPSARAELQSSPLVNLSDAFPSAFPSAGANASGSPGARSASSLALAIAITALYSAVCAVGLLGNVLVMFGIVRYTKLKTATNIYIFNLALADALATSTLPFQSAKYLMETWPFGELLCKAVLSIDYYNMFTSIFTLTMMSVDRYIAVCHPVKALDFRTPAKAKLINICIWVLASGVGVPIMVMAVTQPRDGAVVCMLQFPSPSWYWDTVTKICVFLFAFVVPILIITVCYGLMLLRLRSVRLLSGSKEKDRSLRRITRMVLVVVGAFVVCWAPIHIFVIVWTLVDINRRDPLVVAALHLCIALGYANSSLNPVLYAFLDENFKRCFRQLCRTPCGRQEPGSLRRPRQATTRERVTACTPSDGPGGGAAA

Compound: CCCCCCCCCCCCCC(=O)O[C@@H]1[C@@H](C)[C@@]2(O)[C@@H](C=C(CO)C[C@]3(O)C(=O)C(C)=C[C@@H]23)[C@@H]2C(C)(C)[C@]12OC(C)=O [PMA, Phorbol myristate acetate]
- expression of DOR [1]: DOR was decreased after Phorbol myristate

Compound: D-Penicillamine(2,5)-enkephalin [DPDPE, reference compound]
- A (Hill curve fit parameter) (delta2 opioid receptor): 0.0
- D (Hill curve fit parameter) (delta2 opioid receptor): 95.8

Compound: JAK inhibitor I [reference compound]
- inhibitory effect of the cytokine mix on OPRD1 expression [2]: reversed
